Data reported in publication PMC5218480 (PLoS ONE, 2017).

Test system: MV-4-11 cells
Test: Gene expression microarray analysis (Affymetrix PrimeView) and GSEA
Type: cell-based, human
Set-up: RFU PODN (11730768_x_at) / Fold change /veh PODN (11730768_x_at) / RFU LINC00158 (11744669_a_at) / Fold change /veh LINC00158 (11744669_a_at) / RFU DUSP10 (11751237_a_at) / Fold change /veh DUSP10 (11751237_a_at) / RFU ID3 (11757404_x_at) / Fold change /veh ID3 (11757404_x_at) / RFU PLEKHG5 (11737974_s_at) / Fold change /veh PLEKHG5 (11737974_s_at) / RFU LRRC4B (11730491_at) / Fold change /veh LRRC4B (11730491_at) / RFU GIMAP4 (11747438_a_at) / Fold change /veh GIMAP4 (11747438_a_at) / RFU KRT8 (11758183_x_at) / Fold change /veh KRT8 (11758183_x_at) / RFU CNN1 (11734310_a_at) / Fold change /veh CNN1 (11734310_a_at) / RFU VPS37D (11726825_at) / Fold change /veh VPS37D (11726825_at) / RFU C10orf10 (11716522_x_at) / Fold change /veh C10orf10 (11716522_x_at) / RFU KIR2DL2 /// KIR2DL4 /// KIR2DL5A /// KIR2DL5B /// KIR2DS1 /// KIR2DS2 /// KIR2DS3 /// KIR2DS4 /// KIR3DL3 /// KIR3DL3 /// KIR3DS1 (11738374_at) / Fold change /veh KIR2DL2 /// KIR2DL4 /// KIR2DL5A /// KIR2DL5B /// KIR2DS1 /// KIR2DS2 /// KIR2DS3 /// KIR2DS4 /// KIR3DL3 /// KIR3DL3 /// KIR3DS1 (11738374_at) / RFU C1QL1 (11718748_at) / Fold change /veh C1QL1 (11718748_at) / RFU TMPRSS4 (11747572_a_at) / Fold change /veh TMPRSS4 (11747572_a_at) / RFU HAMP (11756126_x_at) / Fold change /veh HAMP (11756126_x_at) / RFU RNFT2 (11725882_a_at) / Fold change /veh RNFT2 (11725882_a_at) / RFU NR4A2 (11747474_a_at) / Fold change /veh NR4A2 (11747474_a_at) / RFU ABCC12 (11746883_a_at) / Fold change /veh ABCC12 (11746883_a_at) / RFU TMEM136 (11760407_x_at) / Fold change /veh TMEM136 (11760407_x_at) / RFU CLDN22 /// WWC2 (11732394_at) / Fold change /veh CLDN22 /// WWC2 (11732394_at) / RFU HLA-DPB1 (11760878_x_at) / Fold change /veh HLA-DPB1 (11760878_x_at) / RFU SPINT1 (11716480_a_at) / Fold change /veh SPINT1 (11716480_a_at) / RFU GAP43 (11754022_s_at) / Fold change /veh GAP43 (11754022_s_at) / RFU A4GNT (11735810_at) / Fold change /veh A4GNT (11735810_at) / RFU PRB3 (11715151_x_at) / Fold change /veh PRB3 (11715151_x_at) / RFU TUBB4B (11761932_at) / Fold change /veh TUBB4B (11761932_at) / RFU CAPN14 (11732068_a_at) / Fold change /veh CAPN14 (11732068_a_at) / RFU TMCC2 (11721928_a_at) / Fold change /veh TMCC2 (11721928_a_at) / RFU IRGQ (11745062_a_at) / Fold change /veh IRGQ (11745062_a_at) / RFU FAM174B (11720279_a_at) / Fold change /veh FAM174B (11720279_a_at) / RFU TMPRSS4 (11748680_a_at) / Fold change /veh TMPRSS4 (11748680_a_at) / RFU FAM212B (11763350_a_at) / Fold change /veh FAM212B (11763350_a_at) / RFU PLEKHG5 (11743358_a_at) / Fold change /veh PLEKHG5 (11743358_a_at) / RFU ZSCAN30 (11745921_a_at) / Fold change /veh ZSCAN30 (11745921_a_at) / RFU CMKLR1 (11741424_a_at) / Fold change /veh CMKLR1 (11741424_a_at) / RFU LOC101060620 /// MAPK8IP1 (11723275_at) / Fold change /veh LOC101060620 /// MAPK8IP1 (11723275_at) / RFU SPTSSB (11747773_x_at) / Fold change /veh SPTSSB (11747773_x_at) / RFU PRSS12 (11739890_at) / Fold change /veh PRSS12 (11739890_at) / RFU BIN1 (11741810_x_at) / Fold change /veh BIN1 (11741810_x_at) / RFU WNT11 (11732464_a_at) / Fold change /veh WNT11 (11732464_a_at) / RFU C10orf10 (11716521_a_at) / Fold change /veh C10orf10 (11716521_a_at) / RFU C5orf56 (11738089_at) / Fold change /veh C5orf56 (11738089_at) / RFU CYB561 (11721691_x_at) / Fold change /veh CYB561 (11721691_x_at) / RFU ANKRD19P (11752326_a_at) / Fold change /veh ANKRD19P (11752326_a_at) / RFU OR2T12 /// OR2T33 /// OR2T8 (11738714_s_at) / Fold change /veh OR2T12 /// OR2T33 /// OR2T8 (11738714_s_at) / RFU VCAN (11748164_a_at) / Fold change /veh VCAN (11748164_a_at) / RFU JSRP1 (11732532_at) / Fold change /veh JSRP1 (11732532_at) / RFU KRTAP10-11 (11738290_x_at) / Fold change /veh KRTAP10-11 (11738290_x_at) / RFU MYO3A (11730013_a_at) / Fold change /veh MYO3A (11730013_a_at) / RFU EBF3 (11725865_a_at) / Fold change /veh EBF3 (11725865_a_at) / RFU CAMK2N1 (11719241_x_at) / Fold change /veh CAMK2N1 (11719241_x_at) / RFU C5orf56 (11738088_a_at) / Fold change /veh C5orf56 (11738088_a_at) / RFU OLFML3 (11715873_a_at) / Fold change /veh OLFML3 (11715873_a_at) / RFU LOC100653217 /// NTM (11731650_a_at) / Fold change /veh LOC100653217 /// NTM (11731650_a_at) / RFU MAPK11 (11762145_a_at) / Fold change /veh MAPK11 (11762145_a_at) / RFU FIZ1 (11724087_x_at) / Fold change /veh FIZ1 (11724087_x_at) / RFU OASL (11726364_x_at) / Fold change /veh OASL (11726364_x_at) / RFU SOX15 (11748057_x_at) / Fold change /veh SOX15 (11748057_x_at) / RFU CD79A (11719716_a_at) / Fold change /veh CD79A (11719716_a_at) / RFU HIST1H1D (11736915_at) / Fold change /veh HIST1H1D (11736915_at) / RFU CASKIN2 (11723855_a_at) / Fold change /veh CASKIN2 (11723855_a_at) / RFU LOC730098 (11760151_x_at) / Fold change /veh LOC730098 (11760151_x_at) / RFU OR4N2 (11742367_at) / Fold change /veh OR4N2 (11742367_at) / RFU PRRT2 (11749266_a_at) / Fold change /veh PRRT2 (11749266_a_at) / RFU SNX32 (11753110_a_at) / Fold change /veh SNX32 (11753110_a_at) / RFU CDHR5 (11726645_a_at) / Fold change /veh CDHR5 (11726645_a_at) / RFU RCAN1 (11760418_a_at) / Fold change /veh RCAN1 (11760418_a_at) / RFU FAM167A (11723789_a_at) / Fold change /veh FAM167A (11723789_a_at) / RFU FAM26E (11764081_at) / Fold change /veh FAM26E (11764081_at) / RFU ISYNA1 (11749810_s_at) / Fold change /veh ISYNA1 (11749810_s_at) / RFU ACY1 (11761880_at) / Fold change /veh ACY1 (11761880_at) / RFU 11764098_at / Fold change /veh 11764098_at / RFU SAMD14 (11745864_x_at) / Fold change /veh SAMD14 (11745864_x_at) / RFU NPB (11741838_a_at) / Fold change /veh NPB (11741838_a_at) / RFU TMPRSS6 (11731388_a_at) / Fold change /veh TMPRSS6 (11731388_a_at) / RFU KRTAP10-2 (11738614_at) / Fold change /veh KRTAP10-2 (11738614_at) / RFU ARHGAP8 /// PRR5-ARHGAP8 (11727945_x_at) / Fold change /veh ARHGAP8 /// PRR5-ARHGAP8 (11727945_x_at) / RFU KRTAP5-7 /// NADSYN1 (11734609_at) / Fold change /veh KRTAP5-7 /// NADSYN1 (11734609_at) / RFU RASL12 (11751679_a_at) / Fold change /veh RASL12 (11751679_a_at) / RFU CDKN2B (11736163_a_at) / Fold change /veh CDKN2B (11736163_a_at) / RFU PRF1 (11729649_at) / Fold change /veh PRF1 (11729649_at) / RFU, ZNF638 /// ZNF638-IT1 / Fold change vs veh, ZNF638 /// ZNF638-IT1 / RFU, PANK3 / Fold change vs veh, PANK3 / RFU, SH3YL1 / Fold change vs veh, SH3YL1 / RFU, ZEB2 / Fold change vs veh, ZEB2 / RFU, NRIP1 / Fold change vs veh, NRIP1 / RFU, PTTG1IP / Fold change vs veh, PTTG1IP / RFU, CAPN2 / Fold change vs veh, CAPN2 / RFU, MED14 / Fold change vs veh, MED14 / RFU, SNORA58 / Fold change vs veh, SNORA58 / RFU, C1orf63 / Fold change vs veh, C1orf63 / RFU, LRRFIP1 / Fold change vs veh, LRRFIP1 / RFU, NDUFAF7 / Fold change vs veh, NDUFAF7 / RFU, SLC12A2 / Fold change vs veh, SLC12A2 / RFU, IBTK / Fold change vs veh, IBTK / RFU, ESF1 / Fold change vs veh, ESF1 / Fold change vs veh, TMEM50B / RFU, TAOK1 / Fold change vs veh, TAOK1 / RFU, ACBD3 / Fold change vs veh, ACBD3 / RFU, TMA16 / Fold change vs veh, TMA16 / RFU, RWDD3 / Fold change vs veh, RWDD3 / RFU, BCAT1 / Fold change vs veh, BCAT1 / RFU, EDEM3 / Fold change vs veh, EDEM3 / RFU, TMEM33 / Fold change vs veh, TMEM33 / RFU, WDR75 / Fold change vs veh, WDR75 / RFU, AHCTF1 / Fold change vs veh, AHCTF1 / RFU, TFRC / Fold change vs veh, TFRC / RFU, ZDHHC17 / Fold change vs veh, ZDHHC17 / RFU, NOM1 / Fold change vs veh, NOM1 / RFU, ARL8B / Fold change vs veh, ARL8B / RFU, ZBTB11 / Fold change vs veh, ZBTB11 / RFU, TAMM41 / Fold change vs veh, TAMM41 / RFU, KIAA1704 /// LOC100996395 / Fold change vs veh, KIAA1704 /// LOC100996395 / RFU, ING1 / Fold change vs veh, ING1 / RFU, TRMT61B / Fold change vs veh, TRMT61B / RFU, FUBP3 / Fold change vs veh, FUBP3 / RFU, TP53 / Fold change vs veh, TP53 / RFU, TNKS2 / Fold change vs veh, TNKS2 / RFU, ZFP14 / Fold change vs veh, ZFP14 / RFU, ACTR2 / Fold change vs veh, ACTR2 / RFU, PPP3R1 / Fold change vs veh, PPP3R1 / RFU, PIK3R1 / Fold change vs veh, PIK3R1 / RFU, HNRNPA1 / Fold change vs veh, HNRNPA1 / RFU, RNF170 / Fold change vs veh, RNF170 / RFU, ZNF28 / Fold change vs veh, ZNF28 / RFU, RNGTT / Fold change vs veh, RNGTT / RFU, OGT / Fold change vs veh, OGT / RFU, BRD1 / Fold change vs veh, BRD1 / RFU, MARS / Fold change vs veh, MARS / RFU, ZNF655 / Fold change vs veh, ZNF655 / RFU, FAHD1 / Fold change vs veh, FAHD1 / RFU, BDP1 / Fold change vs veh, BDP1 / RFU, LRRCC1 / Fold change vs veh, LRRCC1 / RFU, ARID1A / Fold change vs veh, ARID1A / RFU, ZNF146 / Fold change vs veh, ZNF146 / RFU, ZNF330 / Fold change vs veh, ZNF330 / RFU, GPN3 / Fold change vs veh, GPN3 / RFU, C9orf123 / Fold change vs veh, C9orf123 / RFU, N4BP2L2 / Fold change vs veh, N4BP2L2 / RFU, ARFIP1 / Fold change vs veh, ARFIP1 / RFU, FAM179B / Fold change vs veh, FAM179B / RFU, BCL10 / Fold change vs veh, BCL10 / RFU, UHRF1BP1L / Fold change vs veh, UHRF1BP1L / RFU, BET1 / Fold change vs veh, BET1 / RFU, CNOT2 / Fold change vs veh, CNOT2 / RFU, ZNF268 / Fold change vs veh, ZNF268 / Fold change vs veh, ZNF507 / RFU, DGCR2 / Fold change vs veh, DGCR2 / RFU, WDSUB1 / Fold change vs veh, WDSUB1 / Fold change vs veh, HSP90B1 /// MIR3652 / RFU, ADSS / Fold change vs veh, ADSS / RFU, GK / Fold change vs veh, GK / RFU, ZNF148 / Fold change vs veh, ZNF148 / RFU, TAF9 / Fold change vs veh, TAF9 / RFU, SLC1A5 / Fold change vs veh, SLC1A5 / RFU, SLMO2 / Fold change vs veh, SLMO2 / RFU, ABCC4 / Fold change vs veh, ABCC4 / RFU, LOC101060439 /// RAP1B / Fold change vs veh, LOC101060439 /// RAP1B / RFU, RFX7 / Fold change vs veh, RFX7 / RFU, GTPBP10 / Fold change vs veh, GTPBP10 / RFU, CNEP1R1 / Fold change vs veh, CNEP1R1 / RFU, BIVM-ERCC5 /// ERCC5 / Fold change vs veh, BIVM-ERCC5 /// ERCC5 / RFU, ILF3 / Fold change vs veh, ILF3 / RFU 11762660_at / Fold change /veh 11762660_at / RFU VCAN (11757783_s_at) / Fold change /veh VCAN (11757783_s_at) / RFU DDX43 (11728927_at) / Fold change /veh DDX43 (11728927_at) / RFU KRT8 (11758188_x_at) / Fold change /veh KRT8 (11758188_x_at) / RFU NKD1 (11759106_at) / Fold change /veh NKD1 (11759106_at) / RFU SRD5A1 (11742802_a_at) / Fold change /veh SRD5A1 (11742802_a_at) / RFU TPSAB1 /// TPSB2 (11721975_s_at) / Fold change /veh TPSAB1 /// TPSB2 (11721975_s_at) / RFU GSTM3 (11746129_a_at) / Fold change /veh GSTM3 (11746129_a_at) / RFU IL23R (11737362_x_at) / Fold change /veh IL23R (11737362_x_at) / RFU TMEM51 (11727254_a_at) / Fold change /veh TMEM51 (11727254_a_at) / RFU PIWIL2 (11732686_x_at) / Fold change /veh PIWIL2 (11732686_x_at) / RFU ORM1 (11744905_x_at) / Fold change /veh ORM1 (11744905_x_at) / RFU CCDC152 (11743942_at) / Fold change /veh CCDC152 (11743942_at) / RFU ECM1 (11717891_a_at) / Fold change /veh ECM1 (11717891_a_at) / RFU IL23R (11748794_a_at) / Fold change /veh IL23R (11748794_a_at) / RFU TNFAIP8L3 (11732012_x_at) / Fold change /veh TNFAIP8L3 (11732012_x_at) / RFU MBOAT4 (11741988_at) / Fold change /veh MBOAT4 (11741988_at) / RFU 11764193_at / Fold change /veh 11764193_at / RFU TMEM53 (11763286_at) / Fold change /veh TMEM53 (11763286_at) / RFU MAGEB2 (11727129_at) / Fold change /veh MAGEB2 (11727129_at) / RFU TMEM200A (11744735_a_at) / Fold change /veh TMEM200A (11744735_a_at) / RFU CCDC152 (11751479_a_at) / Fold change /veh CCDC152 (11751479_a_at) / RFU FAM211A (11726209_a_at) / Fold change /veh FAM211A (11726209_a_at) / RFU RGS16 (11746705_a_at) / Fold change /veh RGS16 (11746705_a_at) / RFU VCAN (11755009_s_at) / Fold change /veh VCAN (11755009_s_at) / RFU RHOB (11743442_s_at) / Fold change /veh RHOB (11743442_s_at) / RFU RGS16 (11720943_a_at) / Fold change /veh RGS16 (11720943_a_at) / RFU RGS16 (11720944_at) / Fold change /veh RGS16 (11720944_at) / RFU, VPS4B / Fold change vs veh, VPS4B / RFU, CREB1 / Fold change vs veh, CREB1 / RFU, DNAJC13 / Fold change vs veh, DNAJC13 / RFU, GNAQ / Fold change vs veh, GNAQ / RFU, CDK5R1 / Fold change vs veh, CDK5R1 / RFU, ZRANB3 / Fold change vs veh, ZRANB3 / RFU, CUL4A / Fold change vs veh, CUL4A / RFU, CCNY / Fold change vs veh, CCNY / RFU, UFL1 / Fold change vs veh, UFL1 / RFU, COG3 / Fold change vs veh, COG3 / RFU, DIAPH2 / Fold change vs veh, DIAPH2 / RFU, SKA2 / Fold change vs veh, SKA2 / RFU, AFF3 / Fold change vs veh, AFF3 / RFU, LMF1 / Fold change vs veh, LMF1 / RFU, IPO11 / Fold change vs veh, IPO11 / RFU, DFFB / Fold change vs veh, DFFB / RFU, FOXP1 / Fold change vs veh, FOXP1 / RFU, CARD8 / Fold change vs veh, CARD8 / RFU, STRN3 / Fold change vs veh, STRN3 / RFU, ADK / Fold change vs veh, ADK / RFU, RASSF2 / Fold change vs veh, RASSF2 / RFU, WIPF1 / Fold change vs veh, WIPF1 / RFU, LARP1B / Fold change vs veh, LARP1B / RFU, RASA1 / Fold change vs veh, RASA1 / RFU, RB1 / Fold change vs veh, RB1 / RFU, PPFIA1 / Fold change vs veh, PPFIA1 / RFU, MAT2A / Fold change vs veh, MAT2A / RFU, CCT5 / Fold change vs veh, CCT5 / RFU, WDR92 / Fold change vs veh, WDR92 / RFU, CUX1 / Fold change vs veh, CUX1 / RFU, TTC7A / Fold change vs veh, TTC7A / RFU, TMEM135 / Fold change vs veh, TMEM135 / RFU, DEPTOR / Fold change vs veh, DEPTOR / RFU, CPM / Fold change vs veh, CPM / RFU, DNAJB6 / Fold change vs veh, DNAJB6 / RFU, CACNA2D3 / Fold change vs veh, CACNA2D3 / RFU, DTX4 / Fold change vs veh, DTX4 / RFU, TFCP2 / Fold change vs veh, TFCP2 / RFU, GMCL1 /// GMCL1P1 / Fold change vs veh, GMCL1 /// GMCL1P1 / RFU, AEBP2 / Fold change vs veh, AEBP2 / RFU, SNHG1 /// SNORD22 /// SNORD25 /// SNORD26 /// SNORD27 /// SNORD28 /// SNORD29 /// SNORD31 / Fold change vs veh, SNHG1 /// SNORD22 /// SNORD25 /// SNORD26 /// SNORD27 /// SNORD28 /// SNORD29 /// SNORD31 / Fold change (Aza/veh), C12orf56 (ProbeSet 11735607_a_at) / Fold change (ACY-1035/veh), C12orf56 (ProbeSet 11735607_a_at) / Fold change (Aza/veh), FGFR1OP (ProbeSet 11751329_s_at) / Fold change (ACY-1035/veh), FGFR1OP (ProbeSet 11751329_s_at) / Fold change (Aza/veh), VPS36 (ProbeSet 11739960_a_at) / Fold change (ACY-1035/veh), VPS36 (ProbeSet 11739960_a_at) / RFU SYPL1 (11715823_x_at) / Fold change /veh SYPL1 (11715823_x_at) / RFU IGFBP7 (11715501_s_at) / Fold change /veh IGFBP7 (11715501_s_at) / RFU REEP3 (11722064_at) / Fold change /veh REEP3 (11722064_at) / RFU IGLL1 (11728026_x_at) / Fold change /veh IGLL1 (11728026_x_at): dose or concentration left out as unconfirmed
Settings: MV-4-11 cells, 48 hours

## Nc1ncn([C@@H]2O[C@H](CO)[C@@H](O)[C@H]2O)c(=O)n1 [azacitidine]
  RFU CCDC152 (11751479_a_at): 11.18 RFU
